The results in this text go back to ChEMBL document CHEMBL1136146, “Pyrimidinone antibiotics--heterocyclic analogues with improved antibacterial spectrum” (Bioorg Med Chem Lett, 2003).

Test [1] concerns Staphylococcus aureus. Nature of the test: In vitro minimum inhibitory concentration against Staphylococcus aureus 133. It is filed as functional.
Another test has as its system Escherichia coli. Nature of the test: Inhibitory activity tested against procaryotic translation in Escherichia coli S30 Extract System. It is filed as functional, organism-based.
The nature of test [2]: In vitro selectivity index was measured as IC50 eucaryotic translation/procaryotic translation. It counts as functional.
The species entered for another test is Oryctolagus cuniculus. In words: Inhibitory activity tested against eucaryotic translation in Rabbit Reticulocyte Lysate System L 4540. It is filed as functional.
A short description of test [3]: Antibacterial activity against […] pneumoniae G9a was determined. It is filed as functional.
Test [4] has as its system Enterococcus faecium. In words: Antibacterial activity against Enterococcus faecium L 4001 was determined. It is filed as functional.
The subject of test [5] is Staphylococcus epidermidis. Nature of the test: Antibacterial activity against Staphylococcus epidermidis 18570 was determined. It counts as functional.
Test [6] is described as follows: Antibacterial activity against […] pneumoniae 1707/4 was determined. It counts as functional.
Test [7] has as its system Staphylococcus aureus. In words: Antibacterial activity against Staphylococcus aureus 133 was determined. It is filed as functional.
The test system of test [8] is Enterococcus faecium. In words: Antibacterial activity against Enterococcus faecium 18531 was determined. It is filed as functional.

The structures appear in SMILES notation.

For orientation: MIC means the lowest concentration that inhibits growth of the organism. Lower therefore signals greater potency. Usually IC50 stands for the concentration needed to halve the response being measured. Read a low IC50 as greater potency in that assay. Regarding `CN(C(=O)C[C@@H](N)c1csc(CCN)n1)C1CN=C(NC(N)=O)NC1=O.O=S(=O)(O)C(F)(F)F` (stereo partly drawn), the lowest concentration to inhibit growth against Staphylococcus aureus [1] (MIC) was 100 µg/mL. This compound gave an IC50 with Escherichia coli of 16000 nM.
On the same counts, the results for `CC(=O)O.CN(C(=O)C[C@@H](N)CCCCN)C1CN=C(Nc2cccnc2)NC1=O` (stereo partly drawn) are 50 µg/mL and more than 64000 nM.
Take `Br.CN(C(=O)C[C@@H](N)CCCCN)C1CN=C(Nc2nc3ccccc3s2)NC1=O` (stereo partly drawn): in the test on Staphylococcus aureus [1], the MIC turned out to be 25 µg/mL. In the test on Escherichia coli, the midpoint of inhibition, the IC50, lay at 3200 nM.
In the test with Staphylococcus aureus [1], `CC(=O)O.CN(C(=O)C[C@@H](N)CCCCN)C1CN=C(Nc2ccc3ccccc3n2)NC1=O` (stereo partly drawn) displayed an MIC of 6.3 µg/mL. In test [2], this compound displayed a Selectivity of 1. Further, the IC50 in the test filed under Oryctolagus cuniculus and with Escherichia coli was 50 nM throughout.
In turn, `CN(C(=O)C[C@@H](N)CCCCN)C1CN=C(Nc2ncccn2)NC1=O.Cl.Cl` (stereo partly drawn) showed an MIC against Staphylococcus aureus [1] of 1.6 µg/mL. For the same compound, the Selectivity in [2] worked out at 0.38. Further, the concentration for half-maximal inhibition (IC50) in the test listed under Oryctolagus cuniculus was 380 nM; with Escherichia coli, 1000 nM.
With `Br.Cc1csc(NC2=NCC(N(C)C(=O)C[C@@H](N)CCCCN)C(=O)N2)n1` (stereo partly drawn), the MIC against Staphylococcus aureus [1] was found to be 50 µg/mL. This compound had an IC50 in the test on Escherichia coli of 1000 nM.
Compound `CN(C(=O)C[C@@H](N)CSCCN)C1CN=C(NC(N)=O)NC1=O.Cl.Cl` (stereo partly drawn) yielded an MIC against Staphylococcus aureus [1] of 100 µg/mL.
Compound `CC(=O)O.CN(C(=O)C[C@@H](N)CCCCN)C1CN=C(Nc2nc3ccccc3[nH]2)NC1=O` (stereo partly drawn) returned an MIC against Staphylococcus aureus [1] of 50 µg/mL. In addition, the IC50 in the test on Escherichia coli worked out at 1000 nM.
`Br.CN(C(=O)C[C@@H](N)CCCN=C(N)N)C1CN=C(Nc2ncccn2)NC1=O` (stereo partly drawn) registered an MIC in the test with Staphylococcus aureus [1] of 0.4 µg/mL. In addition, in [2], the Selectivity is more than 2. For the same compound, the IC50 was 100 nM in the test filed under Oryctolagus cuniculus and less than 50 nM in the test with Escherichia coli.
Turning to `CN(C(=O)C[C@@H](N)CCCN=C(N)N)C1CN=C(NC(N)=O)NC1=O.Cl.Cl` (stereo partly drawn), the MIC in [3] was found to be 16 µg/mL; in the test with Staphylococcus aureus [1] it was 0.1 µg/mL; against Enterococcus faecium [4], 2 µg/mL; in test [5], 0.25 µg/mL; in [6] it was 32 µg/mL; in the test with Staphylococcus aureus [7], 0.25 µg/mL. Further, the MIC in the test on Enterococcus faecium [8] is more than 16 µg/mL. This compound gave a Selectivity in test [2] of 0.57. Also, the IC50 in the test filed under Oryctolagus cuniculus amounted to 170 nM; in the test with Escherichia coli, 300 nM. Also, the ED100 in the test on Staphylococcus aureus [7] turned out to be 0.25 mg/kg.
As for `CN(C(=O)C[C@@H](N)c1csc(CN)n1)C1CN=C(NC(N)=O)NC1=O.O=S(=O)(O)C(F)(F)F` (stereo partly drawn), inhibition of growth in the test on Staphylococcus aureus [1] (MIC) required 50 µg/mL. For the same compound, the IC50 in the test with Escherichia coli was determined as 32000 nM.
In turn, `CC(=O)O.CN(C1=NCC(N(C)C(=O)C[C@@H](N)CCCCN)C(=O)N1)c1ccccn1` (stereo partly drawn) gave an MIC against Staphylococcus aureus [1] of more than 100 µg/mL.
Take `CC(=O)O.CN(C(=O)C[C@@H](N)CCCN=C(N)N)C1CN=C(Nc2ccc3ccccc3n2)NC1=O` (stereo partly drawn): the MIC with Staphylococcus aureus [1] was 0.1 µg/mL; against Enterococcus faecium [4] it was 8 µg/mL; in [5], 0.25 µg/mL; in test [6], 8 µg/mL; against Staphylococcus aureus [7], 0.5 µg/mL; with Enterococcus faecium [8], more than 16 µg/mL. The compound further yielded a Selectivity in [2] of 1. Moreover, the IC50 in the test listed under Oryctolagus cuniculus and in the test with Escherichia coli was 100 nM in each case.
In the case of `CN(C(=O)C[C@@H](N)CS(=O)(=O)CCN)C1CN=C(NC(N)=O)NC1=O.Cl.Cl` (stereo partly drawn), in the test with Staphylococcus aureus [1], the MIC was more than 100 µg/mL.
In the test with Staphylococcus aureus [1], `CN(C(=O)C[C@@H](N)c1cc(CN)on1)C1CN=C(NC(N)=O)NC1=O.Cl.Cl` (stereo partly drawn) registered an MIC of more than 100 µg/mL. In the test on Escherichia coli, this compound showed an IC50 of more than 64000 nM.
`CN(C(=O)C[C@@H](N)CCCCN)C1CN=C(NC2=NCCCN2)NC1=O.Cl.Cl` (stereo partly drawn) registered an MIC with Staphylococcus aureus [1] of more than 100 µg/mL.
Still for that read-out and setting: the value for `CC(=O)O.CN(C(=O)C[C@@H](N)CCCCN)C1CN=C(Nc2ccccn2)NC1=O` (stereo partly drawn) was 0.2 µg/mL; that for `CC(=O)O.CN(C(=O)C[C@@H](N)CCCCN)C1CN=C(Nc2ccccc2)NC1=O` (stereo partly drawn) was 100 µg/mL.
As for `Br.CN(C(=O)C[C@@H](N)CCCCN)C1CN=C(Nc2cnccn2)NC1=O` (stereo partly drawn), the MIC against Staphylococcus aureus [1] is less than 0.1 µg/mL. For the same compound, the IC50 in the test filed under Oryctolagus cuniculus and with Escherichia coli was less than 100 nM each time.
In the case of `CC(=O)O.CN(C(=O)C[C@@H](N)CCCN=C(N)N)C1CN=C(Nc2ccccn2)NC1=O` (stereo partly drawn), the MIC was 2 µg/mL in test [3]; less than 0.05 µg/mL against Staphylococcus aureus [1]; 2 µg/mL in the test on Enterococcus faecium [4]; 0.25 µg/mL in [5]; 2 µg/mL in test [6]; 0.5 µg/mL against Staphylococcus aureus [7]. The MIC with Enterococcus faecium [8] was more than 64 µg/mL. Further, 70 nM corresponded to half-maximal inhibition in the test filed under Oryctolagus cuniculus (IC50). In addition, the ED100 with Staphylococcus aureus [7] came out at 1 mg/kg.
In the test on Staphylococcus aureus [1], `CN(C(=O)C[C@@H](N)CCCCN)C1CN=C(NC(N)=O)NC1=O.Cl.Cl` (stereo partly drawn) had an MIC of 0.05 µg/mL. The same compound returned a Selectivity in test [2] of 5.3. In addition, the IC50 in the test listed under Oryctolagus cuniculus turned out to be 2800 nM; with Escherichia coli, 500 nM.
